Tests used:
Assay in all cases: TMT LC-MSMS of 11-labelled proteins
Assay type in all cases: cell-based
[1] = target: T1, ADP/ATP translocase 2 (SLC25A5) (Homo sapiens, UniProt P05141)
T1 sequence (P05141 1-298): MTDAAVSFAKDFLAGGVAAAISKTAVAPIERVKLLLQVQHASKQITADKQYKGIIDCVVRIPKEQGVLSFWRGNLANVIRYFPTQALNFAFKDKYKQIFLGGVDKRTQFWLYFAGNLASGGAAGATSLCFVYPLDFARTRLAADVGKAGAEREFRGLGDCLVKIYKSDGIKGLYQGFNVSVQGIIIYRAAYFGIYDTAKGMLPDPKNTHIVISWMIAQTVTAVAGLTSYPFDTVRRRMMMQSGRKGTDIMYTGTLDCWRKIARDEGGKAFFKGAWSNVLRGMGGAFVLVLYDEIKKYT

[2] = target: Argininosuccinate synthase (ASS1) (Homo sapiens, UniProt P00966); conditions: sheet Merged, SKBR3 cells
[3] = target: Serum albumin (ALB) (Homo sapiens, UniProt P02768)
[4] = target: Trifunctional enzyme subunit alpha, mitochondrial (HADHA) (Homo sapiens, UniProt P40939)
[5] = target: Tubulin beta-4B chain (TUBB4B) (Homo sapiens, UniProt P68371)
[6] = sheet Exp1, SKBR3 cells, 11 0.5 µM 3 h vs DMSO
[7] = sheet Exp1, SKBR3 cells, 11 0.5 µM 3 h vs with PU-H71 10 µM
[8] = sheet Merged, SKBR3 cells, 11 0.5 µM 3 h vs DMSO
[9] = sheet Merged, SKBR3 cells, 11 0.5 µM 3 h vs with PU-H71 10 µM

Sequence of Trifunctional enzyme subunit alpha, mitochondrial (HADHA) (P40939 37-763): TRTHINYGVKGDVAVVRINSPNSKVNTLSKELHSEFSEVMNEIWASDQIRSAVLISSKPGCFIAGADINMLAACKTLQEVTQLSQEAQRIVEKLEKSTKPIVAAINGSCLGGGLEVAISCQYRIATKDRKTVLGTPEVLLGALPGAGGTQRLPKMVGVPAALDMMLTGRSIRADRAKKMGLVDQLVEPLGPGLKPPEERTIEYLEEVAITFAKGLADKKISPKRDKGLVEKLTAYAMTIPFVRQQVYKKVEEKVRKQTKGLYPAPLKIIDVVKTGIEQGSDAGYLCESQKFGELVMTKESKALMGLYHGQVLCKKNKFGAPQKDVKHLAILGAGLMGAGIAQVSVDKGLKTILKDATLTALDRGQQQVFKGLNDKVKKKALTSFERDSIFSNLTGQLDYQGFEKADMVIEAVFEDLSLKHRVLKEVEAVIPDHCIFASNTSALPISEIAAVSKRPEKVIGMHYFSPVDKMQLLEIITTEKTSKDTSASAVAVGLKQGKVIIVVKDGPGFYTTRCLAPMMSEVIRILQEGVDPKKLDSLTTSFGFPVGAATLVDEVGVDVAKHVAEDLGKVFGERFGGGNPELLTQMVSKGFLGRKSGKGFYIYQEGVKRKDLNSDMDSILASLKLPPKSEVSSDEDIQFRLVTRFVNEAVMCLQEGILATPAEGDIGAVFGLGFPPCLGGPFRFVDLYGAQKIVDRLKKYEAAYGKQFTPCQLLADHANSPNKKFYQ
Sequence of Trifunctional enzyme subunit alpha, mitochondrial (HADHA) (P55084 34-474 partner): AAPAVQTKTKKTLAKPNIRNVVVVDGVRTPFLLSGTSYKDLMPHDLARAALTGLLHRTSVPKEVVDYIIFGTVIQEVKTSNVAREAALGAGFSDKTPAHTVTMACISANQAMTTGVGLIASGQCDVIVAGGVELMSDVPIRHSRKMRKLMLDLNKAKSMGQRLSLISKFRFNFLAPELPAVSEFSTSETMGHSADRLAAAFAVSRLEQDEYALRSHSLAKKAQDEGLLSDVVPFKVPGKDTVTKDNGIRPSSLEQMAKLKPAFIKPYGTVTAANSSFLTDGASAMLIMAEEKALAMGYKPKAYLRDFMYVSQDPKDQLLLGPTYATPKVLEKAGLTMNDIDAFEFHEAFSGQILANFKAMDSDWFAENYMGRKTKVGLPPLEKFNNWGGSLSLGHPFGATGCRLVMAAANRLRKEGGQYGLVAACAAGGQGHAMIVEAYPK
Sequence of Serum albumin (ALB) (P02768 25-609): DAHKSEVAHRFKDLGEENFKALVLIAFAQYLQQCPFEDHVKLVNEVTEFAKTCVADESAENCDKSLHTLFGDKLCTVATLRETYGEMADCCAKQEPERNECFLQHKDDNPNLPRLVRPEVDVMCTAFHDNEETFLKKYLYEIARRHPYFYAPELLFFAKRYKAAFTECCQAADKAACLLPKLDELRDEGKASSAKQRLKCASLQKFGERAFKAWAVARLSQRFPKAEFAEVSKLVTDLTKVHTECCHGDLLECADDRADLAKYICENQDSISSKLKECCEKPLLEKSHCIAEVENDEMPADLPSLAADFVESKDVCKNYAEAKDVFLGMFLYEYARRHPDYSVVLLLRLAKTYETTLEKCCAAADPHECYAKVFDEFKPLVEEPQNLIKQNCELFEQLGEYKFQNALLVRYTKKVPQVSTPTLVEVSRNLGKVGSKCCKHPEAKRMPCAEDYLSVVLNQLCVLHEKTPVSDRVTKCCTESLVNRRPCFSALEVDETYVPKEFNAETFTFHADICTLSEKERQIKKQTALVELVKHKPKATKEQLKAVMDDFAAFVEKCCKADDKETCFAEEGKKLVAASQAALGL
Sequence of Tubulin beta-4B chain (TUBB4B) (P68371 whole entry): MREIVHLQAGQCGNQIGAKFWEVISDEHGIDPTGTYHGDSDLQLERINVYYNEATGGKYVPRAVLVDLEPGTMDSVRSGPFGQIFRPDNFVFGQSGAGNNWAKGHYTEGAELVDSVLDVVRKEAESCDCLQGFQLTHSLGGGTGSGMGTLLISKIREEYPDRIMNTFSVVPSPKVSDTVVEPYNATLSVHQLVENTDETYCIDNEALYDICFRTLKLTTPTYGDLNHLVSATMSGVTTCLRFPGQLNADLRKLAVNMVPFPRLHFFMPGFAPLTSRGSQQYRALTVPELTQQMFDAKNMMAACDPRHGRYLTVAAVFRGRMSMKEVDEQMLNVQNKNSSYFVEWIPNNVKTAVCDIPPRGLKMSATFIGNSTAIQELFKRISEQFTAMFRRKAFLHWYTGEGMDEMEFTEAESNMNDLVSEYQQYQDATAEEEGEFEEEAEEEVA
Sequence of Tubulin beta-4B chain (TUBB4B) (P68363 whole entry partner): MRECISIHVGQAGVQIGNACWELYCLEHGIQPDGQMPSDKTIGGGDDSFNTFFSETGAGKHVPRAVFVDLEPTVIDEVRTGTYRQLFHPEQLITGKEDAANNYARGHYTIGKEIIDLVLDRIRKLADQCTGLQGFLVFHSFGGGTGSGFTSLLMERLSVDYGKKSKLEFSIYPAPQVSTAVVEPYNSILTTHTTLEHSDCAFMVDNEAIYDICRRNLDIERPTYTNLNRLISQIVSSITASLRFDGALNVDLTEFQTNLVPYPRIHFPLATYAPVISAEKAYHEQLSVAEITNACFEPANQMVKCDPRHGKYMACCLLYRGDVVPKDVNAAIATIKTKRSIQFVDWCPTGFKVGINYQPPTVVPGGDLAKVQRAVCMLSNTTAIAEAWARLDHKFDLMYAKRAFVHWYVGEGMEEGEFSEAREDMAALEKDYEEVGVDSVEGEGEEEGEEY
Sequence of Argininosuccinate synthase (ASS1) (P00966 whole entry): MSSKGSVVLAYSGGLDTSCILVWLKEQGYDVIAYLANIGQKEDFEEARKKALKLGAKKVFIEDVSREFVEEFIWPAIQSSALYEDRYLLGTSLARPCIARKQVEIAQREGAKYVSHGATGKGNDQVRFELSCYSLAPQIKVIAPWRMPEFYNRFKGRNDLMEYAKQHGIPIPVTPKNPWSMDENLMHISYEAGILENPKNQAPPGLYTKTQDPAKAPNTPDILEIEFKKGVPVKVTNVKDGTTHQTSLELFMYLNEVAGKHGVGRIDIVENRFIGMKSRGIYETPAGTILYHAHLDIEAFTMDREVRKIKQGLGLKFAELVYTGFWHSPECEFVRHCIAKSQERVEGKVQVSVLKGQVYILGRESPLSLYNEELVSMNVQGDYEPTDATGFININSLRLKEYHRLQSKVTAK

Abundance Ratio: (11) / (11 with PU-H71) ([1]; Exp3, SLC25A5): 0.462
Abundance Ratio: (11) / (DMSO) ([1]; Exp3, SLC25A5): 2.668
Abundances (Grouped): 11 ([1]; Exp3, SLC25A5): 245.2
Abundances (Grouped): 11 with PU-H71 ([1]; Exp3, SLC25A5): 530.2
Abundance Ratio: (11) / (DMSO) [1, 6]: 5.138
Abundance Ratio: (11) / (11 with PU-H71) [1, 7]: 0.711
Abundance Ratio: (11) / (11 with PU-H71) ([1]; sheet Exp2, SLC25A5): 0.597
Abundance Ratio: (11) / (DMSO) ([1]; sheet Exp2, SLC25A5): 5.273
Abundances (Grouped): 11 ([1]; sheet Exp2, SLC25A5): 116
Abundances (Grouped): 11 with PU-H71 ([1]; sheet Exp2, SLC25A5): 194.4
Abundance Ratio: (11) / (DMSO) [1, 8]: 2.741
Abundance Ratio: (11) / (11 with PU-H71) [1, 9]: 0.563
Abundance Ratio: (11) / (DMSO) ([2]; 11 0.5 µM 3 h vs DMSO): 2.736
Abundance Ratio: (11) / (11 with PU-H71) ([2]; 11 0.5 µM 3 h vs with PU-H71 10 µM): 0.837
Abundance Ratio: (11) / (11 with PU-H71) ([3]; Exp3, ALB): 0.706
Abundance Ratio: (11) / (DMSO) ([3]; Exp3, ALB): 1.152
Abundances (Grouped): 11 ([3]; Exp3, ALB): 132.6
Abundances (Grouped): 11 with PU-H71 ([3]; Exp3, ALB): 187.7
Abundance Ratio: (11) / (DMSO) [3, 6]: 0.969
Abundance Ratio: (11) / (11 with PU-H71) [3, 7]: 0.846
Abundance Ratio: (11) / (11 with PU-H71) ([3]; sheet Exp2, ALB): 0.796
Abundance Ratio: (11) / (DMSO) ([3]; sheet Exp2, ALB): 0.967
Abundances (Grouped): 11 ([3]; sheet Exp2, ALB): 219.9
Abundances (Grouped): 11 with PU-H71 ([3]; sheet Exp2, ALB): 276.3
Abundance Ratio: (11) / (DMSO) [3, 8]: 0.969
Abundance Ratio: (11) / (11 with PU-H71) [3, 9]: 0.846
Abundance Ratio: (11) / (11 with PU-H71) ([4]; Exp3, HADHA): 0.887
Abundance Ratio: (11) / (DMSO) ([4]; Exp3, HADHA): 5.561
Abundances (Grouped): 11 ([4]; Exp3, HADHA): 1575.4
Abundances (Grouped): 11 with PU-H71 ([4]; Exp3, HADHA): 1776.8
Abundance Ratio: (11) / (DMSO) [4, 6]: 7.409
Abundance Ratio: (11) / (11 with PU-H71) [4, 7]: 0.838
Abundance Ratio: (11) / (11 with PU-H71) ([4]; sheet Exp2, HADHA): 0.82
Abundance Ratio: (11) / (DMSO) ([4]; sheet Exp2, HADHA): 5.216
Abundances (Grouped): 11 ([4]; sheet Exp2, HADHA): 1189.7
Abundances (Grouped): 11 with PU-H71 ([4]; sheet Exp2, HADHA): 1451.4
Abundance Ratio: (11) / (DMSO) [4, 8]: 7.058
Abundance Ratio: (11) / (11 with PU-H71) [4, 9]: 0.838
Abundance Ratio: (11) / (11 with PU-H71) ([5]; Exp3, TUBB4B): 1.068
Abundance Ratio: (11) / (DMSO) ([5]; Exp3, TUBB4B): 3.456
Abundances (Grouped): 11 ([5]; Exp3, TUBB4B): 287.5
Abundances (Grouped): 11 with PU-H71 ([5]; Exp3, TUBB4B): 269.1
Abundance Ratio: (11) / (DMSO) [5, 6]: 3.652
Abundance Ratio: (11) / (11 with PU-H71) [5, 7]: 1.046
Abundance Ratio: (11) / (11 with PU-H71) ([5]; sheet Exp2, TUBB4B): 0.891
Abundance Ratio: (11) / (DMSO) ([5]; sheet Exp2, TUBB4B): 2.612
Abundances (Grouped): 11 ([5]; sheet Exp2, TUBB4B): 209.5
Abundances (Grouped): 11 with PU-H71 ([5]; sheet Exp2, TUBB4B): 235
Abundance Ratio: (11) / (DMSO) [5, 8]: 3.477
Abundance Ratio: (11) / (11 with PU-H71) [5, 9]: 1.054
SMILES: CC(=O)Oc1ccc2c(c1)Oc1cc(OC(C)=O)ccc1C21OC(=O)c2cc(C(=O)NCCOCCOCCNC(=O)CCCC(=O)N(CC#N)S(=O)(=O)c3ccc(C(=O)NCCCn4c(Sc5cc6c(cc5I)OCO6)nc5c(N)ncnc54)cc3)ccc21 [compound 11]

— article PMC5951806, “Rapid labelling and covalent inhibition of intracellular native proteins using ligand-directed N-acyl-N-alkyl sulfonamide” (Nature Communications, 2018)
